Results: US12612411B1, “Imidazopyrazine derivatives, process for preparation thereof, and their uses as luciferins” (INSTITUT PASTEUR, priority 2017, dated 2026)

What was measured:
[1] = Acidic hydrolysis of imidazo[1,2-a]pyrazin-3-yl acetate into the luciferin, LC/MS monitoring; assay type: physicochemical; conditions: DMSO / acidic ethanol (HCl), 50° C.
Method: FIG. 1 illustrates the HPLC profiles over time for the acetyl hydrolysis of P-21 (M=451) into the corresponding luciferin Q-12 (M=409). Obtained on an Agilent apparatus, with a 3.5 μm XDB-C18 column and a water/methanol gradient (containing 5 mM ammonium formate, from 95-5 to 5-95 in 3.5 min, 3.5 min at 5-95, and then back at 95-5 in 0.5 min), UV monitoring set at […].
General protocol for the generation of solutions of imidazo[1,2-a]pyrazin-3(7H)-one Q by acidic hydrolysis of imidazo[1,2-a]pyrazin-3-yl acetate derivatives P. The considered acetate P (1 mg) was dissolved in DMSO (0.2 mL) and then diluted by adding a solution of acidic ethanol (0.3 ml) made from the addition of 37% hydrochloric acid (100 μl) on 100% ethanol (12 mL). This 0.5 mL solution was incubated at 50° C. for 2 hours to give a stock solution which was then stored at −80° C. […] Nota: these conditions are only adapted to the hydrolysis of the protecting group (as defined above) of the oxygen on position 2 of the imidazo[1,2-a]pyrazine ring system and not to the hydrolysis of any additional acetyl groups eventually present elsewhere on the substrate of this reaction.

nanoKAZ [2] = target: T1, nanoKAZ (Oplophorus gracilirostris, UniProt Q9GV45, A31E/A60N/A81I/F95D/I117V/K70R/L54V/L99Q/M102K/N193R/P142E/Q151K/Q38R/Q45L/V71I/Y165I); experiment: Michaelis-Menten parameters of nanoKAZ from Lineweaver-Burk representation; assay type: biochemical; conditions: for Vmax: extrapolated from Lineweaver-Burk, constant enzyme concentration
T1 construct: luciferase catalytic domain (nanoKAZ, 19 kDa) from the Oplophorus-derived luciferase
T1 sequence (Q9GV45 other isoform, or with tags, fused parts or gaps with the stated changes): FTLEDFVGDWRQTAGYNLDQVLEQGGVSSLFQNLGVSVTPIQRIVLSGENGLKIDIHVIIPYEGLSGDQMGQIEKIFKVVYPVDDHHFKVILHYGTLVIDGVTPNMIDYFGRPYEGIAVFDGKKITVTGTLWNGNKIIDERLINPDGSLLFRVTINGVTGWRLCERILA
From the text: The two dotted lines (linear regression) are converging to the same intercept with the x-axis (−1/Km) and different intercepts with the y-axis (1/Vmax). The equations of the two linear regressions are indicated and the corresponding correlation factors (R^2) with the experimental data are reported.
Considering the hypothesis of a Michaelis-Menten mechanism for the nanoKAZ, the Km and Vmax were extrapolated from the Lineweaver-Burk representation of the enzyme activity catalyzing either Q-1 or Q-3. […] The data have been fitted with linear regression with satisfying high correlation factors (R). The Km are the same for both substrates (Km=2 μM) whereas the Vmax is 3-times lower for Q-1 (0.6·10^6 RLU/sec) than for Q-3 (2.0·10^6 RLU/sec).

nanoKAZ luciferase = target: T2, nanoKAZ luciferase (Oplophorus gracilirostris, UniProt Q9GV45, A31E/A60N/A81I/F95D/I117V/K70R/L54V/L99Q/M102K/N193R/P142E/Q151K/Q38R/Q45L/V71I/Y165I); experiment: In vitro bioluminescence screening of imidazo[1,2-a]pyrazin-3(7H)-ones with nanoKAZ expressed in vitro (96-well luminometer, 2 h kinetic); assay type: biochemical; conditions: furimazine = 1
T2 construct: luciferase catalytic domain (nanoKAZ, 19 kDa) from the Oplophorus-derived luciferase; host or cells: cell-free: 1-Step Human Coupled IVT Kit, pT7CFE1-based vector
T2 sequence (Q9GV45 other isoform, or with tags, fused parts or gaps with the stated changes): as above
Summary of the method: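 nanoKAZ made by human coupled IVT, diluted 400-fold then 1/20 in DPBS + 0.1% Tween 20; luciferins generated in situ by acid hydrolysis of O-acetyl precursors (DMSO/acidic ethanol, 50 °C, 2 h). Luminescence followed kinetically for 2 h; max intensity, signal half-life and 10-min and 2-h AUC normalized to furimazine.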

[3] = system: protein chimeras fused to the nanoKAZ in transiently transfected HEK and Jurkat cell lines, and primary human T-cells; experiment: In cellulo bioluminescence imaging with a light microscope; assay type: cell-based
From the text: FIG. 5 compares expression and location of protein chimeras fused to the nanoKAZ in transiently transfected HEK and Jurkat cell lines, and primary human T-cells: the cytokine receptor IL7Rα:nanoKAZ at the membrane (top), the enconsin tubulin binding protein EMTB:nanoKAZ associated with microtubules (middle), the transcription factor STAT5a:nanoKAZ dense throughout the cytoplasm and faint in the nucleus (bottom).
The acquisition of bioluminescence using a light microscope provides a quantitative measurement of light emission cell by cell, the main advantage. This is meaningful especially when the transfection efficiency is low in the case of nanoKAZ expression provided by plasmids. […] The higher is the bioluminescence efficiency, the lower is the exposure time and the lower is the sensitivity required for the detector or camera. NanoKAZ with developed substrates such as Q-3 or Q-12 opens the bioluminescence imaging to standard light microscope. The lower the exposure time, the higher the resolution, which is impeded by the motion of living cells. Any gain in light emission enhances the quality of images. Luciferase reporters or fragments can be fused to proteins targeting the cell surface, cytoplasm, organelles, nucleus or exosomes and can be carried by virus, host-infecting cells or agents, biologic complexes, beads or any particles. […]

[4] = cited from earlier work; for storage stability: commercially available luciferins; for permitted storage time at 4° C.: recommended storage conditions
nanoKAZ [5] = target: T1, nanoKAZ; experiment: Bioluminescence emission spectra; assay type: biochemical
From the text: (§1) Furimazine (Q-1) and derivatives have emission spectra centred on 460 nm but present large peaks bleeding beyond 580 nm. The bioluminescence obtained with the analogue Q-3 provides photons with 10% of them having a wavelength beyond 560 nm up to 600 nm. This wide spectra emission toward red is thus allowing the use of the nanok AZ/furimazine for in vivo imaging. The light emission beyond 580 is thousands times higher than red emitting firefly or beetle luciferases. IL7:nanoKAZ and analogue Q-3 were injected in mice.

IL7:nanoKAZ = experiment: In vivo bioluminescence imaging (Ivis) after injection of IL7:nanoKAZ and substrate; conditions: IL7:nanoKAZ and substrate injected in mice
From the text: as §1

nanoKAZ [6] = target: T1, nanoKAZ; experiment: Dynamic range of nanoKAZ bioluminescence versus serial enzyme dilutions; assay type: biochemical; conditions: constant volume 100 μL, constant substrate concentration
Method: FIG. 3 illustrates dynamic range (relative units (RLU) versus serial dilutions) of nanok AZ, which was plotted using the imidazo[1,2-a]pyrazin-3(7H)-one Q-3.
As depicted in FIG. 3, the dynamic range of nanoKAZ was assessed using luciferin Q-3. The enzyme was diluted three by three times and the bioluminescence has been measured on a constant volume (100 (L) and at constant concentration of the substrate. The bioluminescence is linear with the enzyme concentration over 5 orders of magnitude, overwhelming the detection system. This range can be increase by two orders of magnitude by decreasing 2 times the volume for high enzyme concentration and by increasing two times the volume for low enzyme concentration.

[7] = second table, luciferins made in situ from O-protected P

| Structure (SMILES) | Vmax (nanoKAZ [2]) | V1: maximum intensity, normalized using furimazine (Q-1) as a reference (nanoKAZ luciferase; Table 1) | V3: area under the curve for ten minutes, normalized using furimazine (Q-1) as a reference (nanoKAZ luciferase; Table 1) | V4: area under the curve for two hours, normalized using furimazine (Q-1) as a reference (nanoKAZ luciferase; Table 1) | V3: area under the curve for 2 hours, normalized using furimazine (Q-1) as a reference (nanoKAZ luciferase; second table) | V4: area under the curve for ten minutes, normalized using furimazine (Q-1) as a reference (nanoKAZ luciferase; second table) | V1: maximum intensity, normalized using furimazine (Q-1) as a reference (nanoKAZ luciferase; [7]) | storage stability [4] | permitted storage time at 4° C. [4] | also measured |
| --- | --- | --- | --- | --- | --- | --- | --- | --- | --- | --- |
| CCc1ccc(Cc2nc3c(Cc4ccccc4)nc(-c4ccccc4)cn3c2OC(C)=O)o1 [P-21, 8-Benzyl-2-((5-ethylfuran-2-yl)methyl)-6-phenylimidazo[1,2-a]pyrazin-3-yl acetate] |  |  |  |  |  |  |  |  |  | time to complete hydrolysis into the luciferin Q-12 [1]: complete reaction in less than two hours |
| O=c1c(Cc2ccco2)nc2c(Cc3ccccc3)[nH]c(-c3ccccc3)cn1-2 [Q-1, 8-benzyl-2-(furan-2-ylmethyl)-6-phenylimidazo[1,2-a]pyrazin-3(7H)-one, reference compound] | 0.6·10^6 RLU/sec | 1 | 1 | 1 | 1 | 1 | 1 | very weak storage stability | up to two weeks only | Vmax, times lower than for Q-3 (nanoKAZ [2]; Q-1 versus Q-3): 3 times; extension of experience times to get the same quality as with nanoKAZ/analogue Q-3 ([3]; nanoKAZ/furimazine versus nanoKAZ/Q-3): 3 folds; emission spectra centre (nanoKAZ [5]): 460 nm |
| Cc1ccc(Cc2nc3c(Cc4ccccc4)[nH]c(-c4ccccc4)cn-3c2=O)o1 [Q-3, 8-benzyl-2-((5-methylfuran-2-yl)methyl)-6-phenylimidazo[1,2-a]pyrazin-3(7H)-one] | 2.0·10^6 RLU/sec | 2.7 | 2.39 | 1.3 |  |  |  |  |  | light emission in live-cell images compared with Q-1 ([3]; images acquired for one second from live cells, FIG. 5): gain of light emission; in vivo bioluminescence image quality (IL7:nanoKAZ): Quantitative images of high quality were acquired; range over which bioluminescence is linear with the enzyme concentration (nanoKAZ [6]): 5 orders of magnitude; photons having a wavelength beyond 560 nm up to 600 nm (nanoKAZ [5]): 10% |
| O=c1c(Cc2ccc(O)cc2)nc2c(Cc3ccccc3)[nH]c(-c3ccc(O)cc3)cn1-2 [Q-86, 8-benzyl-2-(4-hydroxybenzyl)-6-(4-hydroxyphenyl)imidazo[1,2-a]pyrazin-3(7H)-one, reference compound] |  | 0.09 | 0.08 | 0.07 |  |  |  | very weak storage stability | up to two weeks only |  |
| CCc1oc(Cc2nc3c(Cc4cccc(F)c4F)[nH]c(-c4ccccc4)cn-3c2=O)cc1C [Q-143, 8-(2,3-difluorobenzyl)-2-((5-ethyl-4-methylfuran-2-yl)methyl)-6-phenylimidazo[1,2-a]pyrazin-3(7H)-one] |  |  |  |  | 0.39 | 1.34 | 1.43 |  |  |  |
| O=c1c(Cc2ccco2)nc2c(Cc3ccccc3)[nH]c(-c3cccc(O)c3)cn1-2 [Q-149, 8-benzyl-2-(furan-2-ylmethyl)-6-(3-hydroxyphenyl)imidazo[1,2-a]pyrazin-3(7H)-one] |  |  |  |  | 0.85 | 1.05 | 1.12 |  |  |  |
